How the values were obtained:
human α3β3γ2 receptors = human α3β3γ2 receptors (Homo sapiens (Human), UniProt P18507+P34903); assay: 3H-flunitrazepam competition binding, human α3β3γ2 GABAA receptor; details: HEK293 cell membranes, 1 nM 3H-flunitrazepam; read-out: Ki α3
Method: (§1) The affinity of the compound to each subtype of GABAA receptor was determined by competing for the binding of ^3H-flunitrazepam to HEK293 cells stably expressing human α1β3γ2, α2β3γ2, α3β3γ2, and α5β3γ2 receptors.
(§2) The cells were suspended in 50 mM Tris-HCl buffer (pH=7.4), homogenized 10 times on ice with a homogenizer for 20 seconds, and centrifuged at 1000 g for 10 minutes at 4° C. The supernatant was collected, and the above steps were repeated. The supernatant was centrifuged at 4° C. (33800 g; Thermo, rotor: A27-8×50) for 60 minutes, and the precipitate was resuspended in Tris buffer (50 mM Tris-HCl, 10 mM MgCl2, 0.5 mM EDTA, 10% glycerol). Protein was measured (BCA method, Pierce), and 1 mL aliquots were prepared and stored at −80° C.
(§3) The radioligand competition binding assay was performed in a 200 μL system (96-well plate) containing 100 μL of cell membrane. The concentration of ^3H-flunitrazepam was 1 nM and the concentration of the test compound was in the range of […]. Flumazenil was used as a control. 1 μL of 2 mM flumazenil (final concentration […]) was added to the low signal control well (Low control, LC), and 1 μL of DMSO was added to the high signal control well (High control, HC). The final concentration of target membrane protein was […]. All test compound sample storage solutions were 10 mM. The working concentration of the samples was to dilute all the samples to 0.2 mM with DMSO, followed by 4-fold serial gradient dilutions for a total of 8 concentration gradients. The 96-well plate was sealed with a sealing film, and then incubated on a shaker at room temperature for 1 hour. At the same time, the GF/C filter plate was soaked in soaking buffer (0.3% PEI, stored at 4° C.) for at least 0.5 hours. After the binding incubation was completed, the cells were collected onto a GF/C filter plate using a cell harvester. The plate was washed four times with washing buffer (50 mM Tris-HCl, pH 7.4, stored at 4° C.). After drying in a 50° C. oven for 1 hour, the bottom of the dried GF/C filter plate was sealed. The residual radioactivity on the filter membrane was detected using liquid scintillation counting. 50 μL of scintillation fluid was added to each well, and the plate was sealed. The readings were taken using a Microbeta2. The inhibitory activity of the test sample on the binding of ^3H-flunitrazepam to GABAA receptor membrane proteins was calculated, and the IC50 of each test sample was calculated by dose-effect curve fitting (GraphPad Prism 5 software), and the Ki of the sample was calculated from the IC50, thus evaluating the binding ability of the sample to the various subtypes of GABAA receptors.

human α2β3γ2 receptors = human α2β3γ2 receptors (Homo sapiens (Human), UniProt P18507+P47869); assay: 3H-flunitrazepam competition binding, human α2β3γ2 GABAA receptor; details: HEK293 cell membranes, 1 nM 3H-flunitrazepam; read-out: Ki α2
Method: as §1, §2, §3

human α1β3γ2 receptors = human α1β3γ2 receptors (Homo sapiens (Human), UniProt P14867+P18507); assay: 3H-flunitrazepam competition binding, human α1β3γ2 GABAA receptor; details: HEK293 cell membranes, 1 nM 3H-flunitrazepam; read-out: Ki α1
Method: as §1, §2, §3

[1] = target: human α5β3γ2 receptors (α5-GABAA receptor) (Homo sapiens (Human), UniProt P18507+P31644); assay: 3H-flunitrazepam competition binding, human α5β3γ2 GABAA receptor; details: HEK293 cell membranes, 1 nM 3H-flunitrazepam; read-out: α5-GABAAR Ki
In short: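 HEK293 membranes stably expressing each human receptor subtype ([…]) competed against 1 nM 3H-flunitrazepam in Tris buffer, 1 h at room temperature; flumazenil defined the low-signal control. Eight-point 4-fold test-compound dilutions; GF/C filtration and scintillation counting gave IC50 by curve fitting, converted to Ki.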

[2] = target: α5-GABAA receptor (α5, β3, γ2 subunits) (Homo sapiens (Human), UniProt P18507+P31644); assay: Whole cell patch clamp, inverse agonist efficacy in HEK293 cells expressing α5-GABAA receptor; assay type: cell-based; details: GABA 0.05 μM, −60 mV; for inhibition at 0.1 µM: HEK293, drug 100 nM, read-out: Compound inverse agonist efficacy %
In short: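 Stable HEK293 line co-expressing human α5, β3, γ2 subunits; whole-cell patch clamp at −60 mV, inward current evoked by 0.05 μM GABA, then compound at 100 nM in GABA solution applied. Effect derived from leak, pre- and post-drug GABA currents.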

SMILES | Ki (human α3β3γ2 receptors) | Ki (human α2β3γ2 receptors) | Ki (human α1β3γ2 receptors) | Ki [1] | Compound inverse agonist efficacy % ([2]; drug 100 nM) | inhibition at 0.1 µM [2]
Cc1nnn(-c2ccc(C(F)F)cc2)c1COc1ccc(N2CCN3CC(C4CC4)NC(=O)[C@@H]3C2)nn1 (single isomer, unassigned) [Example 204] | 0.0503 µM | 0.0701 µM | 0.158 µM | 0.00231 µM | −68.71% | 
Cc1nnn(-c2ccc(C(F)F)cc2)c1COc1ccc(N2CCNC(=O)C2)nn1 [Example 2, 4-(6-((1-(4-(Difluoromethyl)phenyl)-4-methyl-1H-1,2,3-triazol-5-yl)methoxy)pyridazin-3-yl)piperazin-2-one] | 0.0286 µM | 0.0198 µM | 0.145 µM | 0.00215 µM |  | 58.8%
Cc1nnn(-c2ccc(C(F)F)cc2)c1COc1ccc(N2CC(=O)NC(=O)C2)nn1 [Example 5, 4-(6-((1-(4-(Difluoromethyl)phenyl)-4-methyl-1H-1,2,3-triazol-5-yl)methoxy)pyridazin-3-yl)piperazine-2,6-dione] | 0.0168 µM | 0.0129 µM | 0.0581 µM | 0.00096 µM |  | 54.5%
Cc1nnn(-c2ccc(C(F)F)cc2)c1COc1ccc(N2CC(=O)NC(C)(C)C2)nn1 [Example 7, 4-(6-((1-(4-(Difluoromethyl)phenyl)-4-methyl-1H-1,2,3-triazol-5-yl)methoxy)pyridazin-3-yl)-6,6-dimethylpiperazin-2-one] | 0.017 µM | 0.0262 µM | 0.122 µM | 0.001 µM |  | 
Cc1nnn(-c2ccc(C(F)F)cc2)c1COc1ccc(N2CC(=O)NC3(CC3)C2)nn1 [Example 8, 7-(6-((1-(4-(Difluoromethyl)phenyl)-4-methyl-1H-1,2,3-triazol-5-yl)methoxy)pyridazin-3-yl)-4,7-diazaspiro[2.5]octan-5-one] | 0.017 µM | 0.0222 µM | 0.0805 µM | 0.00089 µM |  | 40.4%
Cc1nnn(-c2ccc(C(F)F)cc2)c1COc1ccc(N2CCNC2=O)nn1 [Example 19, 1-(6-((1-(4-(Difluoromethyl)phenyl)-4-methyl-1H-1,2,3-triazol-5-yl)methoxy)pyridazin-3-yl)imidazolidin-2-one] | 0.00734 µM | 0.0104 µM | 0.0158 µM | 0.00052 µM |  | 53.7%
Cc1nnn(-c2ccc(C(F)F)cc2)c1COc1ccc(N2CCN(C)C(=O)C2)cn1 [Example 22, 4-(6-((1-(4-(Difluoromethyl)phenyl)-4-methyl-1H-1,2,3-triazol-5-yl)methoxy)pyridin-3-yl)-1-methylpiperazin-2-one] |  | 0.0386 µM | 0.087 µM | 0.00269 µM |  | 48.4%
Cc1nnn(-c2ccc(C(F)F)cc2)c1COc1ccc(N2CCOC2=O)nn1 [Example 23, 3-(6-((1-(4-(Difluoromethyl)phenyl)-4-methyl-1H-1,2,3-triazol-5-yl)methoxy)pyridazin-3-yl)oxazolidin-2-one] |  | 0.0136 µM | 0.0219 µM | 0.00373 µM |  | 44.1%
Cc1nnn(-c2ccc(C(F)F)cc2)c1COc1ccc(N2CCN(C)C2=O)nn1 [Example 24, 1-(6-((1-(4-(Difluoromethyl)phenyl)-4-methyl-1H-1,2,3-triazol-5-yl)methoxy)pyridazin-3-yl)-3-methylimidazolidin-2-one] |  | 0.017 µM | 0.0193 µM | 0.00772 µM |  | 
Cc1nnn(-c2ccc(C(F)F)cc2)c1COc1ccc(N2CCN[C@H](C(=O)O)C2)nn1 [Example 27, (S)-4-(6-((1-(4-(Difluoromethyl)phenyl)-4-methyl-1H-1,2,3-triazol-5-yl)methoxy)pyridazin-3-yl)piperazine-2-carboxylic acid] | 0.135 µM | 0.107 µM | 0.333 µM | 0.00365 µM |  | 59.1%
CCNC(=O)C1CN(c2ccc(OCc3c(C)nnn3-c3ccc(C(F)F)cc3)nn2)C1 [Example 43, 1-(6-[(1-(4-(Difluoromethyl)phenyl)-4-methyl-1H-1,2,3-triazol-5-yl)methoxy]pyridazin-3-yl)-N-ethylazetidine-3-carboxamide] | 0.0185 µM | 0.0727 µM | 0.149 µM | 0.00449 µM |  | 52.2%
Cc1nnn(-c2ccc(C(F)F)cc2)c1COc1ccc(N2CCN3CCNC(=O)[C@@H]3C2)nn1 [Example 54, (S)-8-(6-((1-(4-(Difluoromethyl)phenyl)-4-methyl-1H-1,2,3-triazol-5-yl)methoxy)pyridazin-3-yl)hexahydro-2H-pyrazino[1,2-a]pyrazin-1(6H)-one] | 0.0498 µM | 0.0716 µM | 0.294 µM | 0.00255 µM |  | 50.9%
Cc1nnn(-c2ccc(C(F)F)cc2)c1COc1ccc(N2CCN3CCNC(=O)[C@H]3C2)nn1 [Example 55, (R)-8-(6-((1-(4-(Difluoromethyl)phenyl)-4-methyl-1H-1,2,3-triazol-5-yl)methoxy)pyridazin-3-yl)hexahydro-2H-pyrazino[1,2-a]pyrazin-1(6H)-one] | 0.0275 µM | 0.0564 µM | 0.178 µM | 0.00039 µM |  | 51.6%
Cc1nnn(-c2ccc(C(F)F)cc2)c1COc1ccc(N2CCN(CCN3CCCC3)C(=O)C2)nn1 [Example 61, 4-(6-((1-(4-(Difluoromethyl)phenyl)-4-methyl-1H-1,2,3-triazol-5-yl)methoxy)pyridazin-3-yl)-1-(2-(pyrrolidin-1-yl)ethyl)piperazin-2-one] | 0.0131 µM | 0.026 µM | 0.126 µM | 0.00212 µM |  | 49%
Cc1nnn(-c2ccc(C(F)F)cc2)c1COc1ccc(N2CC(=O)N3CCNCC3C2)nn1 (centres unmarked) [Example 68, 2-(6-((1-(4-(Difluoromethyl)phenyl)-4-methyl-1H-1,2,3-triazol-5-yl)methoxy)pyridazin-3-yl)hexahydro-1H-pyrazino[1,2-a]pyrazin-4-(6H)-one] | 0.014 µM | 0.0171 µM | 0.0569 µM | 0.00084 µM |  | 50.5%
Cc1nnn(-c2ccc(C(F)F)cc2)c1COc1ccc(N2CCN(CCN3CCOCC3)C(=O)C2)nn1 [Example 95, 4-(6-((1-(4-(Difluoromethyl)phenyl)-4-methyl-1H-1,2,3-triazol-5-yl)methoxy)pyridazin-3-yl)-1-(2-morpholinoethyl)piperazin-2-one] |  |  | 0.00623 µM | 0.00067 µM |  | 51.9%
Cc1nnn(-c2ccc(C(F)F)cc2)c1COc1ccc(N2CCN3CC(C(C)C)NC(=O)[C@@H]3C2)nn1 (stereo partly drawn) [Example 200, (9aS)-8-(6-((1-(4-(Difluoromethyl)phenyl)-4-methyl-1H-1,2,3-triazol-5-yl)methoxy)pyridazin-3-yl)-3-isopropylhexahydro-2H-pyrazino[1,2-a]pyrazin-1(6H)-one] |  |  |  | 0.0019 µM |  | 60.1%
Cc1nnn(-c2ccc(C(F)F)cc2)c1COc1ccc(N2CCN3C(C(C)C)CNC(=O)[C@@H]3C2)nn1 (some centres unmarked) [Example 207] |  |  |  | 0.00492 µM |  | 51.9%

Source: patent US20250136581A1, “SUBSTITUTED TRIAZOLE DERIVATIVE, PREPARATION METHOD THEREFOR, PHARMACEUTICAL COMPOSITION THEREOF, AND USE THEREOF” (SHANGHAI SIMR BIOTECHNOLOGY CO., LTD., priority 2021, published 2025)
